Patent publication US11209437B2, “Fluorescent probe and preparation method and use thereof” (Fluorescence Diagnosis (shanghai) Biotech Company Ltd., priority 2016, dated 2021)

Assays:
[1] = Viscosity responsiveness: fluorescence emission spectra of probes in glycerol and methanol; assay type: physicochemical; conditions: for Emission wavelength: excited at maximum excitation wavelength of each probe; for Fluorescence ratio in glycerol to methanol: probe 1×10^−5 M
Procedure: Probes 1 to 98, 101, 103, 105, 107, 109, 111, 114, 117, and 120, and the reference probes 99, 100, 102, 104, 106, 108, 110, 112, 113, 115, 116, 118, 119, 121, BG-CCVJ and BG-Gly-CCVJ were dissolved in dimethyl sulfoxide, respectively, to prepare mother liquors having a concentration of 1×10^−2 M, to each of which glycerol and methanol were added and uniformly mixed, to prepare solutions finally having a concentration of 1×10^−5 M. Depending on the probes, fluorescence emission spectra of the probes were detected successively with the maximum excitation wavelength of each probe under the same conditions, and the results were shown in Table 1.
That is, these probes are sensitive to viscosity changes and have viscosity responsiveness.

SNAP protein tags = target: T1, SNAP protein tags (Homo sapiens, UniProt P16455, A127T/A154D/C150Q/C62A/E30R/G131K/G132T/G153L/K125A/K32I/L33F/M134L/N157G/Q115S/Q116H/R128A/R135S/S151G/S152D/S159E); test: Fluorescence activation of probe after incubation with corresponding protein tag (SNAP); assay type: biochemical; conditions: probe 5 μM, protein tag 10 μM, 37° C., 1 hr
T1 sequence (P16455 1-182 E30R/K32I/L33F/C62A/Q115S/Q116H/K125A/A127T/R128A/G131K/G132T/M134L/R135S/C150Q/S151G/S152D/G153L/A154D/N157G/S159E): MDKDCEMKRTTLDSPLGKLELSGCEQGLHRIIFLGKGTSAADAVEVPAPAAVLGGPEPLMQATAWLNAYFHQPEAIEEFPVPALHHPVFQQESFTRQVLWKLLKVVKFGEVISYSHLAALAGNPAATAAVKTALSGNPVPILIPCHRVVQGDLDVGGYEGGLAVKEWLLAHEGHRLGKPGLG
Procedure: (§1) Probes were mixed with corresponding protein tags to obtain mixed samples, in which the final probe concentration was 5 μM, and the final protein tag concentration was 10 μM. The mixed samples were incubated 37° C. for 1 hr, fluorescence spectrophotometer was used to detect the change in fluorescence intensity, and the results are shown in Table 1.
(§2) From the quantum yield of probe bound to protein tag, after reacting with the protein tags, the probes of the Examples could be detected to have significant signal enhancement in corresponding excitation transmission channels, the fluorescence activation multiple reached several hundreds to a thousand or more, and the brightness was high, which illustrates that after the probes of the Examples are bound to the protein tags, fluorescence of the probes can be activated, and the probes have good fluorescent molecular switching properties. In contrast, though the fluorescence of the reference probes could also be activated, the quantum yield of activated fluorescence was very low, and the brightness was very poor. In particular, in view of comparison results between probe 98 and reference probe 99, probe 101 and reference probe 102, probe 103 and reference probe 104, probe 105 and reference probe 106, probe 107 and reference probe 108, probe 109 and reference probe 110, probe 111 and reference probe 112, probe 114 and reference probe 115, probe 117 and reference probe 118, probe 120 and reference probe 121 in Table 1, for the same fluorescent dye, when the ligand is connected to the electron donor part of the fluorescent dye, the fluorescence activation brightness of the probe is much higher than the reference probe in which ligand is connected to the electron acceptor part of the fluorescent dye.

[2] = Fluorescence of free probe prior to binding to a protein tag; assay type: physicochemical
Procedure: as §1, §2

| SMILES | Emission wavelength [1] [nm] | Fluorescence ratio in glycerol to methanol [1] | Fluorescence activation multiple (SNAP protein tags) | Quantum yield of probe bound to protein tag (SNAP protein tags) | Quantum yield of free probe [2] |
| --- | --- | --- | --- | --- | --- |
| CN(CCO)c1cc2c(s1)-c1sc(/C=C(/C#N)C(=O)NCc3ccc(COc4nc(N)nc5[nH]cnc45)cc3)cc1C2(C)C [Reference Probe 99, reference compound] | 649 | 129 | 53 | 0.01 | <0.001 |
| CN(C)c1ccc(/C=C(\C#N)C(=O)NCc2ccc(COc3nc(N)nc4[nH]cnc34)cc2)cc1 [Reference Probe 100, reference compound] | 480 | 213 | 43 | 0.011 | <0.001 |
| CN(CCO)c1ccc(/C=C(\C#N)C(=O)NCc2ccc(COc3nc(N)nc4[nH]cnc34)cc2)cc1 [Reference Probe 102, reference compound] | 480 | 212 | 31 | 0.02 | <0.001 |
| N#C/C(=C\c1ccc2c(c1)SCCN2CCO)C(=O)NCc1ccc(COc2nc(N)nc3[nH]cnc23)cc1 [Reference Probe 104, reference compound] | 515 | 351 | 23 | 0.02 | <0.001 |
| CC1=CC(C)(C)N(CCO)c2ccc(/C=C(\C#N)C(=O)NCc3ccc(COc4nc(N)nc5[nH]cnc45)cc3)cc21 [Reference Probe 106, reference compound] | 555 | 215 | 62 | 0.01 | <0.001 |
| CN(CCO)c1cc2sc(/C=C(\C#N)C(=O)NCc3ccc(COc4nc(N)nc5[nH]cnc45)cc3)cc2s1 [Reference Probe 108, reference compound] | 555 | 329 | 30 | 0.02 | <0.001 |
| CN(CCO)c1ccc(C#C/C=C(\C#N)C(=O)NCc2ccc(COc3nc(N)nc4[nH]cnc34)cc2)cc1 [Reference Probe 110, reference compound] | 567 | 218 | 23 | 0.01 | <0.001 |
| CN(CCO)c1ccc2cc(/C=C(\C#N)C(=O)NCc3ccc(COc4nc(N)nc5[nH]cnc45)cc3)sc2c1 [Reference Probe 112, reference compound] | 570 | 211 | 41 | 0.01 | <0.001 |
| CN(C)c1ccc2nc(/C=C(\C#N)C(=O)NCc3ccc(COc4nc(N)nc5[nH]cnc45)cc3)sc2c1 [Reference Probe 113, reference compound] | 625 | 129 | 36 | 0.01 | <0.001 |
| CN(CCO)c1ccc2nc(/C=C(\C#N)C(=O)NCc3ccc(COc4nc(N)nc5[nH]cnc45)cc3)sc2c1 [Reference Probe 115, reference compound] | 625 | 113 | 38 | 0.01 | <0.001 |
| CN(C)c1ccc(-c2ccc(/C=C(\C#N)C(=O)NCc3ccc(COc4nc(N)nc5[nH]cnc45)cc3)s2)cc1 [Reference Probe 116, reference compound] | 620 | 125 | 29 | 0.01 | <0.001 |
| CN(CCO)c1ccc(-c2ccc(/C=C(\C#N)C(=O)NCc3ccc(COc4nc(N)nc5[nH]cnc45)cc3)s2)cc1 [Reference Probe 118, reference compound] | 621 | 158 | 29 | 0.02 | <0.001 |
| CN(C)c1ccc(-c2ccc(/C=C(\C#N)C(=O)NCc3ccc(COc4nc(N)nc5[nH]cnc45)cc3)s2)s1 [Reference Probe 119, reference compound] | 655 | 362 | 15 | 0.01 | <0.001 |
| CN(CCO)c1ccc(-c2ccc(/C=C(\C#N)C(=O)NCc3ccc(COc4nc(N)nc5[nH]cnc45)cc3)s2)s1 [Reference Probe 121, reference compound] | 655 | 219 | 39 | 0.01 | <0.001 |
| N#C/C(=C\c1cc2c3c(c1)CCCN3CCC2)C(=O)NCc1ccc(COc2nc(N)nc3[nH]cnc23)cc1 [Reference Probe BG-CCVJ, reference compound] | 501 | 260 | 170 | 0.02 | <0.001 |
| N#C/C(=C\c1cc2c3c(c1)CCCN3CCC2)C(=O)NCC(=O)NCc1ccc(COc2nc(N)nc3[nH]cnc23)cc1 [Reference Probe BG-Gly-CCVJ, reference compound] |  | 260 | 60 |  | <0.001 |
| CN(CCOC(=O)NCc1ccc(COc2nc(N)nc3[nH]cnc23)cc1)c1ccc(/C=C(\C#N)c2nc3ccccc3o2)cc1 [probe 2] | 510 | 410 | 146 | 0.15 | 0.001 |
| CN(CCOC(=O)NCc1ccc(COc2nc(N)nc3[nH]cnc23)cc1)c1ccc(/C=C(\C#N)c2nc3ccccc3s2)cc1 [probe 3] | 532 | 399 | 139 | 0.27 | 0.0019 |
| CN(CCOC(=O)NCc1ccc(COc2cc(Cl)nc(N)n2)cc1)c1ccc(/C=C(\C#N)C(=O)OC(C)(C)C)cc1 [probe 4] | 480 | 562 | 490 | 0.35 | <0.001 |
